# Measured values from patent publication US11007199B2, “Compositions and methods for ameliorating pain and reducing fever” (The Board of Supervisors of Louisiana State University and …, priority 2017, dated 2021).
# Entries after “also recorded” stand apart in the source; their conditions may differ.
# Legend:
# rats = experiment: Von Frey analgesia assay; details: in vivo analgesia model, FIG. 8; IP injection
# Method: Von Frey analgesia assay. Twenty rats are brought into the eVF room and allowed to acclimate to the room for 30 minutes. At the 30 minute mark, saline injections begin. 30 minutes after the saline injection, the eVF readings of the rats are taken by applying the filament of the eVF machine to the center of the bottom of the hind paws (left and right) of each rat. The filament uses a magnet to remain attached to the probe, which measures the pressure in grams applied to the filament. The pressure readout is then recorded from the transducer.
# After saline injections, a drug is injected (different compound each day). In the same manner as saline injections, at the 30 minute mark after each drug injection, eVF readings of each rat are taken.
# Drug Injection/Concentration: All drugs and saline were administered by intraperitoneal (IP) injection. Each injection was 1 mL/kg of body weight (i.e., 463 g rat received 0.463 mL of injection). Four doses on a logarithmic scale for ApAP w ere used. 10 mg/kg, 32 mg/kg, 100 mg/kg, and 320 mg/kg.
# CD1 male mice = experiment: Tail-flick assay; details: in vivo analgesia model, FIG. 8; per os at 40 mg/kg
# Method: Tail-flick assay. Analgesic effect of drugs was determined by using the reaction time (latency) of mice to thermal stimulation of the tail tip. All animals (CD1 male mice) were fasted overnight (with free access to water) and their baseline tail flick latency (seconds) was recorded twice for each mouse using an IITC Tail Flick Analgesia Meter.
# After measurement of baseline latency, drugs were administered per os at 40 mg/kg to animals belonging to the treatment groups. At 30 minutes post injection, tail flick latency was recorded again, twice for each mouse, to determine total change in latency. Mice were subjected to cold shock by dipping their tails into ice-cold water at 4° C.
# Percentage of maximum analgesia for each mouse were calculated with the formula, Percentage Analgesia=100*{[(Latency to tail flick after drug injection)−(Latency to tail flick at baseline)]/[(12 sec cutoff time)−(Baseline latency)]}. Data expressed as mean±SEM, n=10.
# CD-1 male mice [1] = experiment: Acetic acid-induced abdominal writhing assay; format: in vivo
# Method: Acetic acid-induced abdominal writhing assay. Contraction of the abdominal muscle and stretching of the hind limbs is induced as a response to intraperitoneal (ip) injection of an acetic acid solution, as described Hendershot and Forsaith, 1959. In this model of visceral pain, abdominal contractions (writhing) is induced in mice by an ip injection of 0.4% acetic acid at a dose of 10 mL/Kg, 25 min after drug administration. The number of writhes is counted for 10 min beginning 5 min after acetic acid injection.
# All groups have been compared to vehicle and differences analyzed by one-way ANOVA followed by Sidak's multiple comparison post hoc test.
# hepatocytes = experiment: Hepatotoxicity (LDH assay, GSH assay); format: cell-based; details: FIG. 6
# Method: LDH assay. Using the Pierce LDH Cytotoxicity assay kit from Thermo Scientific, cells were incubated in presence of various drug compounds, followed by collection of the medium supernatant. Release of LDH was measured in 96 well plate formats. The absorbance was measured at 490 nm and 680 nm and the final result was absorbance observed at 680 nm subtracted from absorbance observed at 490 nm (A490nw-A680nm).
# GSH assay. Using the ThiolTracker Violet Glutathione Detection reagent from Molecular Probes (Invitrogen), after hepatocytes were incubated in the presence of various compounds, incubation medium was removed, cells rinsed with D-PBS conditioned medium followed by incubation with pre-warmed ThiolTracker Violet dye (working solution prepared as per manufacturer's instructions) for 30 minutes. Fluorescence was measured at the following wavelengths: excitation (404 nm) and emission (526 nm). The finalized result was expressed as relative fluorescence units (RFU), which indicates the cellular level of reduced glutathione (GSH) in intact cells.
# Hepatotoxicity results for the inventive DEA salt compound are shown m FIG. 6.
# CD-1 male mice [2] = experiment: Baker yeast-induced hyperthermia (antipyresis); format: in vivo; details: 50 mg/kg bw p.o., baker's yeast-induced fever, FIG. 5
# Method: The antipyretic effect of the compounds was assessed utilizing baker yeast-induced hyperthermia. All animals (CD-1 male mice weighing between 45-50 g) were fasted overnight (with free access to water) and their baseline temperature was recorded using a Cole-[…] rectal thermometer probe. […] (206% […].); (Groups 5-6) DEA salt-Brewer's yeast soln. (20% w/v) (i.p.) and DEA Salt (50 mg/kg bw) (p.o.). Two hours post-injection, rectal temperatures were recorded once again, to determine total change in body temperature. Percentage Change in body temperature is calculated with the formula, Percentage Change=[(Total change in body temperature)/(Base temperature)*100]. Data is expressed as mean±SEM, n=10.
smiles,measurement,setting,value
"CCNCC.O=C(CNS(=O)(=O)c1ccccc1C(=O)O)Nc1ccc(O)cc1 [DEA salt, 2-[[2-(4-hydroxyanilino)-2-oxo-ethyl]sulfamoyl]benzoate diethylammonium salt]","reducing pain versus ApAP, Von Frey assay",rats,comparable to ApAP in reducing pain
same,"reducing pain versus ApAP, tail flick assay",CD1 male mice,comparable to ApAP in reducing pain
same,calculated 50% effective dose (ED50) based on the writhing assay,"CD-1 male mice [1]; CD-1 male mice, per os, ip 0.4% acetic acid",10.3 mg/kg
same,number of writhes induced by injection of acetic acid,"CD-1 male mice [1]; FIG. 8, vehicle only nearly 40",under 20
same,"reducing pain versus ApAP, acetic acid-induced abdominal writhing","CD-1 male mice [1]; in vivo analgesia model, FIG. 8",comparable to ApAP in reducing pain
same,hepatotoxicity versus ApAP,hepatocytes,minimal hepatotoxicity; also recorded: decreased toxicity
same,antipyretic effect versus ApAP,CD-1 male mice [2],antipyretic effect comparable to ApAP
